# According to US8178506B2, “Oligomeric compounds and compositions for use in modulation of small non-coding RNAs” (Regulus Therapeutics Inc., priority 2003, dated 2012):
# Test system: ob/ob mice
# Assay: ob/ob mice: plasma parameters, food consumption, marker gene mRNA
# Format: in vivo, mouse
# Settings: ob/ob mice, 25 mg/kg s.c. two times per week, 6 weeks
# Procedure, shortened: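 Male C57Bl/6J ob/ob mice received oligomeric compound or control at 25 mg/kg s.c. twice weekly, for 4 weeks on a 10-15% fat diet or for 6 weeks on high-fat diet. Plasma glucose and insulin were measured at 0, 2 and 4 weeks; i.p. glucose/insulin tolerance tests were run; serum lipids, liver triglycerides and histology were assessed, with liver, BAT and WAT mRNA quantified by real-time PCR.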
sequence,measurement,value
"CTAGTGGTCCTAAACATTTCAC (chemistry not given here) [ISIS 327878, uniform 2′-MOE PS; targets mir-203]",plasma glucose levels (fed),reduced beginning at approximately four weeks after the start of treatment
